Literature values, collected in patent US6011041A, “Use of anhydrovinblastine” (priority 1996, dated 2000).

Assays:
[1] = humans; cited from earlier work
[2] = tested on: tumour; conditions: alkaloids extracted from Vinca rosea; cited from earlier work
[3] = tested on: human rhabdosarcomas; conditions: in vivo; cited from earlier work

Structure (SMILES) | dose limiting toxicity [1] | antitumour activity [2] | activity in human rhabdosarcomas transplanted in nude mice [3]
CC[C@]1(O)C[C@@H]2CN(CCc3c([nH]c4ccccc34)[C@@](C(=O)OC)(c3cc4c(cc3OC)N(C)[C@H]3[C@@](O)(C(=O)OC)[C@H](OC(C)=O)[C@]5(CC)C=CCN6CC[C@]43[C@@H]65)C2)C1 [vinblastine] | anemia and leucopenia | significant antitumour activity | not active in this system
CC[C@]12CN3CCc4c([nH]c5ccccc45)[C@@](C(=O)OC)(c4cc5c(cc4OC)N(C)[C@H]4[C@@](O)(C(=O)OC)[C@H](OC(C)=O)[C@]6(CC)C=CCN7CC[C@]54[C@@H]76)C[C@@H](C3)[C@H]1O2 [vinleurosine] | – | significant antitumour activity | –
